Assays:
[1] = system: Micrococcus luteus; test: Antibacterial activity against Micrococcus luteus MTCC 2470 assessed as inhibition zone after 24 hrs at 30 degC by well diffusion method; type: functional; settings: MTCC 2470, 24 h
[2] = system: Staphylococcus aureus; test: Antibiofilm activity against Staphylococcus aureus MTCC 96 after 24 hrs by crystal violet staining method; type: functional, organism-based; settings: MTCC 96, 24 h
[3] = system: Bacillus subtilis; test: Antibiofilm activity against Bacillus subtilis MTCC 121 after 24 hrs by crystal violet staining method; type: functional, organism-based; settings: MTCC 121, 24 h
[4] = system: Bacillus subtilis; test: Bactericidal activity against Bacillus subtilis MTCC 121 assessed as microbial killing after 24 hrs; type: functional; settings: MTCC 121, 24 h
[5] = system: Staphylococcus aureus; test: Antibacterial activity against Staphylococcus aureus MLS-16 MTCC 2940 assessed as inhibition zone after 24 hrs at 30 degC by well diffusion method; type: functional; settings: MLS-16 MTCC 2940, 24 h
[6] = system: Staphylococcus aureus; test: Antibiofilm activity against Staphylococcus aureus MLS-16 MTCC 2940 after 24 hrs by crystal violet staining method; type: functional, organism-based; settings: MLS-16 MTCC 2940, 24 h
[7] = system: Staphylococcus aureus; test: Bactericidal activity against Staphylococcus aureus MLS-16 MTCC 2940 assessed as microbial killing after 24 hrs; type: functional; settings: MLS-16 MTCC 2940, 24 h
[8] = system: Pseudomonas aeruginosa; test: Antibacterial activity against Pseudomonas aeruginosa MTCC 2453 assessed as inhibition zone after 24 hrs at 30 degC by well diffusion method; type: functional; settings: MTCC 2453, 24 h
[9] = system: Escherichia coli; test: Antibiofilm activity against Escherichia coli MTCC 739 after 24 hrs by crystal violet staining method; type: functional, organism-based; settings: MTCC 739, 24 h
[10] = system: Staphylococcus aureus; test: Antibacterial activity against Staphylococcus aureus MTCC 96 […] after 24 hrs at 30 degC by well diffusion method; type: functional; settings: MTCC 96, 24 h
[11] = system: Bacillus subtilis; test: Antibacterial activity against Bacillus subtilis MTCC 121 assessed as inhibition zone after 24 hrs at 30 degC by well diffusion method; type: functional; settings: MTCC 121, 24 h
[12] = system: Escherichia coli; test: Bactericidal activity against Escherichia coli MTCC 739 assessed as microbial killing after 24 hrs; type: functional; settings: MTCC 739, 24 h
[13] = system: Staphylococcus aureus; test: Bactericidal activity against Staphylococcus aureus MTCC 96 assessed as microbial killing after 24 hrs; type: functional; settings: MTCC 96, 24 h
[14] = system: Raoultella planticola; test: Antibacterial activity against Klebsiella planticola MTCC 530 assessed as inhibition zone after 24 hrs at 30 degC by well diffusion method; type: functional; settings: MTCC 530, 24 h
[15] = system: Escherichia coli; test: Antibacterial activity against Escherichia coli MTCC 739 assessed as inhibition zone after 24 hrs at 30 degC by well diffusion method; type: functional; settings: MTCC 739, 24 h
[16] = Cytotoxicity against human IMR90 cells assessed as reduction in cell viability by MTT assay; type: cell-based; settings: IMR-90
[17] = Cytotoxicity against human SKOV3 cells assessed as reduction in cell viability by MTT assay; type: functional, cell-based; settings: SK-OV-3
[18] = Cytotoxicity against human DU145 cells assessed as reduction in cell viability by MTT assay; type: functional, cell-based; settings: DU-145
[19] = system: Candida albicans; test: Antifungal activity against Candida albicans MTCC 227 assessed as inhibition zone after 24 hrs at 30 degC by well diffusion method; type: functional; settings: MTCC 227, 24 h
[20] = system: Nakaseomyces glabratus; test: Antifungal activity against Candida glabrata MTCC 3019 assessed as inhibition zone after 24 hrs at 30 degC by well diffusion method; type: functional; settings: MTCC 3019, 24 h
[21] = system: Pichia sporocuriosa; test: Antifungal activity against Issatchenkia hanoiensis MTCC 4755 assessed as inhibition zone after 24 hrs at 30 degC by well diffusion method; type: functional; settings: MTCC 4755, 24 h
[22] = system: Pichia kudriavzevii; test: Antifungal activity against Candida krusei MTCC 3020 assessed as inhibition zone after 24 hrs at 30 degC by well diffusion method; type: functional; settings: MTCC 3020, 24 h
[23] = system: Candida albicans; test: Antifungal activity against Candida albicans MTCC 4748 assessed as inhibition zone after 24 hrs at 30 degC by well diffusion method; type: functional; settings: MTCC 4748, 24 h
[24] = system: Candida albicans; test: Antifungal activity against Candida albicans MTCC 183 assessed as inhibition zone after 24 hrs at 30 degC by well diffusion method; type: functional; settings: MTCC 183, 24 h
[25] = system: [Candida] aaseri; test: Antifungal activity against Candida aaseri MTCC 1962 assessed as inhibition zone after 24 hrs at 30 degC by well diffusion method; type: functional; settings: Yamadazyma aaseri, MTCC 1962, 24 h
[26] = system: Candida albicans; test: Fungicidal activity against Candida albicans MTCC 7315 assessed as microbial killing after 24 hrs; type: functional; settings: MTCC 7315, 24 h
[27] = system: Candida albicans; test: Fungicidal activity against Candida albicans MTCC 3958 assessed as microbial killing after 24 hrs; type: functional; settings: MTCC 3958, 24 h
[28] = system: Candida albicans; test: Fungicidal activity against Candida albicans MTCC 3018 assessed as microbial killing after 24 hrs; type: functional; settings: MTCC 3018, 24 h
[29] = system: Pichia sporocuriosa; test: Fungicidal activity against Issatchenkia hanoiensis MTCC 4755 assessed as microbial killing after 24 hrs; type: functional; settings: MTCC 4755, 24 h
[30] = system: Candida albicans; test: Antifungal activity against Candida albicans MTCC 3018 assessed as inhibition zone after 24 hrs at 30 degC by well diffusion method; type: functional; settings: MTCC 3018, 24 h
[31] = system: Candida albicans; test: Fungicidal activity against Candida albicans MTCC 227 assessed as microbial killing after 24 hrs; type: functional; settings: MTCC 227, 24 h
[32] = system: Candida albicans; test: Fungicidal activity against Candida albicans MTCC 854 assessed as microbial killing after 24 hrs; type: functional; settings: MTCC 854, 24 h
[33] = system: Candida albicans; test: Antifungal activity against Candida albicans MTCC 7315 assessed as inhibition zone after 24 hrs at 30 degC by well diffusion method; type: functional; settings: MTCC 7315, 24 h
[34] = system: Candida albicans; test: Antifungal activity against Candida albicans MTCC 854 assessed as inhibition zone after 24 hrs at 30 degC by well diffusion method; type: functional; settings: MTCC 854, 24 h
[35] = system: Candida albicans; test: Antifungal activity against Candida albicans MTCC 3958 assessed as inhibition zone after 24 hrs at 30 degC by well diffusion method; type: functional; settings: MTCC 3958, 24 h
[36] = system: [Candida] aaseri; test: Fungicidal activity against Candida aaseri MTCC 1962 assessed as microbial killing after 24 hrs; type: functional; settings: Yamadazyma aaseri, MTCC 1962, 24 h
[37] = system: Pichia kudriavzevii; test: Fungicidal activity against Candida krusei MTCC 3020 assessed as microbial killing after 24 hrs; type: functional; settings: MTCC 3020, 24 h
[38] = system: Candida albicans; test: Fungicidal activity against Candida albicans MTCC 3017 assessed as microbial killing after 24 hrs; type: functional; settings: MTCC 3017, 24 h
[39] = system: Nakaseomyces glabratus; test: Fungicidal activity against Candida glabrata MTCC 3019 assessed as microbial killing after 24 hrs; type: functional; settings: MTCC 3019, 24 h
[40] = system: Candida parapsilosis; test: Fungicidal activity against Candida parapsilosis MTCC 1744 assessed as microbial killing after 24 hrs; type: functional; settings: Lodderomyces parapsilosis, MTCC 1744, 24 h
[41] = system: Candida albicans; test: Fungicidal activity against Candida albicans MTCC 183 assessed as microbial killing after 24 hrs; type: functional; settings: MTCC 183, 24 h
[42] = system: Candida albicans; test: Fungicidal activity against Candida albicans MTCC 4748 assessed as microbial killing after 24 hrs; type: functional; settings: MTCC 4748, 24 h
[43] = system: Candida albicans; test: Fungicidal activity against Candida albicans MTCC 1637 assessed as microbial killing after 24 hrs; type: functional; settings: MTCC 1637, 24 h
[44] = system: Candida parapsilosis; test: Antifungal activity against Candida parapsilosis MTCC 1744 assessed as inhibition zone after 24 hrs at 30 degC by well diffusion method; type: functional; settings: Lodderomyces parapsilosis, MTCC 1744, 24 h
[45] = system: Candida albicans; test: Antifungal activity against Candida albicans MTCC 3017 […] after 24 hrs at 30 degC by well diffusion method; type: functional; settings: MTCC 3017, 24 h
[46] = system: Candida albicans; test: Antifungal activity against Candida albicans MTCC 1637 assessed as inhibition zone after 24 hrs at 30 degC by well diffusion method; type: functional; settings: MTCC 1637, 24 h

O=C(O)c1cn(C2CC2)c2cc(N3CCNCC3)c(F)cc2c1=O [CIPROFLOXACIN]
0.4 µg/mL: IC50 [6]
0.6 µg/mL: IC50 [2]
0.9 µg/mL: MIC [1] | MIC [5] | MBC [7] | MIC [8] | MIC [10] | MIC [11] | MBC [12] | MBC [13] | MIC [14] | MIC [15]
1.9 µg/mL: MBC [4]
0.5 µg/mL: IC50 [9]
0.7 µg/mL: IC50 [3]

COc1cccc2c1C(=O)c1c(O)c3c(c(O)c1C2=O)C[C@@](O)(C(=O)CO)C[C@@H]3O[C@H]1C[C@H](N)[C@H](O)[C@H](C)O1 [DOXORUBICIN]
21300 nM: IC50 [16]
700 nM: IC50 [17] | IC50 [18]

Clc1ccc(COC(Cn2ccnc2)c2ccc(Cl)cc2Cl)c(Cl)c1 (stereo unspecified) [MICONAZOLE]
7.8 µg/mL: MIC [19] | MIC [20] | MIC [21] | MIC [22] | MIC [23] | MIC [24] | MIC [25] | MFC [26] | MFC [28] | MFC [29] | MIC [30] | MIC [33] | MIC [34] | MIC [35] | MFC [36] | MFC [37] | MFC [38] | MFC [40] | MFC [41] | MFC [42] | MIC [44] | MIC [45] | MIC [46]
15.6 µg/mL: MFC [27] | MFC [31] | MFC [32] | MFC [39] | MFC [43]

— ChEMBL document CHEMBL3745709, “Synthesis of novel ethyl 1-ethyl-6-fluoro-7-(fatty amido)-1,4-dihydro-4-oxoquinoline-3-carboxylate derivatives and their biological evaluation” (Bioorg Med Chem Lett, 2016)
